Patent US20150050682A1, “DIRECT ASSAY OF THIOREDOXIN REDUCTASE ACTIVITY” (University of Vermont and State Agricultural College, priority 2013, published 2015)

Tests used:
[1] = tested on: thioredoxin reductase (TR); test: Selenocystine TR assay (SC-TR assay); assay type: biochemical, mouse; settings: for Efficiency of reduction by TR: L- versus racemic selenocystine as substrate; for Inhibition of TR activity (NADPH turnover, A340): C10 whole cell lysates, FIG. 2B
Experimental: Selenocystine TR assay. Cells were plated into 60 mm tissue culture dishes and the following day were washed with ice-cold 1× phosphate buffered saline (PBS) and lysed in the culture dish by adding either TE Buffer (50 mM Tris/HCl pH 7.5, 1 mM EDTA) or NP-40 lysis buffer (150 mM NaCl, 50 mM Tris pH 8.0, 1% NP-40, 1 μg/mL leupeptin, 1 μg/mL aprotinin, 1 mM NaF, 1 mM NaVO3, 1 mM PMSF) as indicated in the text. Cell lysates were scraped from culture dishes on ice and transferred to 1.5 mL microcentrifuge tubes. TE buffer lysates were sonicated at 4° C. for 30 sec with 1-2 sec pulses using a sonic dismembrator. TE and NP-40 lysates were centrifuged for 10 min at 14,000 rpm at 4° C. and protein concentrations of the supernatants were determined by reading the absorption at 595 nm of Bradford reagent. A total reaction volume of 100 μl was assembled in a clear 96-well round bottom microplate containing the following: (i) master mix containing 1 mM NADPH and 2 mM selenocystine (SC) in ddH2O (addition of 40 μl of master mix to 100 μl reaction volume yields final concentrations of 400 μM and 800 μM respectively), (ii) 25 μg or the largest practical amount of protein, (iii) TE or NP-40 lysis buffer. Controls for each sample included protein only control, protein and NADPH control, and protein and SC control. Control master mixes contained: (i) 2 mM NADPH in ddH2O (addition of 20 μl to 100 μl reaction volume yields final concentration of 400 μM), (ii) 2 mM SC prepared as described above (addition of 40 μl to 100 μl reaction volume yields final concentration of 800 μM).
Each master mix was separately placed into a clean, sterile pipet basin and pipetted quickly into the wells of a 96-well microplate with a multichannel pipetter making sure to avoid bubbles. This approach was used in order that each sample was exposed to the master mix at the same time to ensure homogeneity of results. The plate was read in 30 sec intervals over a 20 min time period at 340 nm on a Synergy HT Microplate Reader™ (BioTek). Because the assay monitors the consumption of NADPH at 340 nm, an activity can be calculated by using Beer's Law and an extinction coefficient of 6,220 M^−1 cm^−1 for NADPH. The activity can be reported as mol NADPH consumed per min. Bradford assays for total protein concentration determination can be performed directly in each well of the 96-well plate. If this is done, then the activity can be reported as mol NADPH consumed per min per mg of total protein. For the data presented in FIGS. 2 and 5, 1 unit of TR activity is defined as the amount of TR that will consume 1 nmol of NADPH per min.

[2] = tested on: thioredoxin reductase (TR); test: Discontinuous insulin end-point TR assay; assay type: biochemical, mouse; settings: for Inhibition of TR activity: C10 whole cell lysates, end-point TR assay, FIG. 2A
Experimental: Discontinuous insulin end-point assay. Cell lysates were prepared in TE buffer as described above and the sonicated lysates were centrifuged for 10 min at 14,000 rpm at 4° C. Supernatants were transferred to fresh 1.5 mL microcentrifuge tubes and protein concentrations were determined by a Bradford assay. A total reaction volume of […] was assembled by addition of 20 μL master mix to 20 μL of 25 μM E. coli Trx solution. The master mix contained 50 mM Tris/Cl pH 7.5, 1 mM EDTA, 900 μM NADPH (257 μM final), and 4.5 mg/mL insulin (1.3 mg/mL final). After addition of all of the components to a cuvette, the reactions were incubated at room temperature for 60 min and terminated by the addition of 930 μL of 6 M guanidine•HCL containing 1 mM 5,5′-dithio-bis(2-nitrobenzoic acid) (DTNB) solution prepared in ethanol; activity was detected by reading absorbance at 412 nm in a spectrophotometer. TR activity was determined by calculating the difference between identical samples +/− Trx. Here the activity is expressed as arbitrary units as determined by the raw A412 reading. Alternatively, the number of units can be calculated by using Beer's Law and an extinction coefficient of 13,600 M^−1 cm^−1 for the TNB anion. One unit of TR activity is the amount of enzyme catalyzing the reduction of 1 μM of DTNB per min (formation of 2 μmol TNB anion).

glutathione reductase = biological target: T1, glutathione reductase (Homo sapiens, UniProt P00390); test: Reduction of selenocystine by glutathione reductase in vitro; assay type: biochemical; settings: same experimental conditions under which TR reduces selenocystine
T1 sequence (P00390 44-522): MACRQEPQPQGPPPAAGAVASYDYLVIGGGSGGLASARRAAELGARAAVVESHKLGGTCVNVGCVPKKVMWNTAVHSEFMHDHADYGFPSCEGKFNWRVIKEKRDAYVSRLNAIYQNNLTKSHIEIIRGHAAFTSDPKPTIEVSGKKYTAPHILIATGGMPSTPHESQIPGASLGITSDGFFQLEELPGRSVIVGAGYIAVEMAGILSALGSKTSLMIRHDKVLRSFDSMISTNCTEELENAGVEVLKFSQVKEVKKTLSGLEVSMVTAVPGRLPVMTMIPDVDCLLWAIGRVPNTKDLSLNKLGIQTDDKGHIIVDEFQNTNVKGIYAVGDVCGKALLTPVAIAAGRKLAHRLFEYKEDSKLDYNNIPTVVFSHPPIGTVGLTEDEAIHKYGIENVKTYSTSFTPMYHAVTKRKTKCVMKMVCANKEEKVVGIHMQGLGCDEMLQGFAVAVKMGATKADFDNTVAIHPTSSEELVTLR

TR1 = test: Immunoblot of TR1 expression after siRNA knockdown in C10 cells; assay type: cell-based, mouse; settings: Western blot, FIG. 3E
Text: TR over-expression and gene silencing. Full length TR1 was amplified from pCMV6-XL4 vector by PCR using specific forward (5′-[…]-3′) and reverse (5′-[…]-3′) primers and subsequently cloned into pcDNA 3.1 mammalian expression vector. Insertion of WT-TR1 full-length cDNA, including the 3′ SECIS element, into pcDNA 3.1 was confirmed by sequencing using the appropriate forward and reverse primer sets (T7 Forward: BGH Reverse). WT-TR1 or empty pcDNA 3.1 vector were transfected into C10 cells according to manufacturer's protocol. Specific siRNA to TR1 (si-TR1, 5′-[…]-3′) and a control (“scramble”) RNA (5′-[…]-3′) were introduced into C10 cells following the manufacturers guidelines (Dharmacon).
Immunoblotting. Equal protein amounts from cell lysates were separated on 10% gels by SDS-PAGE. Proteins were transferred to PVDF membrane for immunoblotting, and membranes then were blocked in 5% milk (Tris buffered saline with 0.1% Tween, TBST) for 1 hr at room temperature. Anti-TR1 (1:1000) anti-Trxl (1:2000) and anti-actin (1:5000) antibodies were diluted in 5% milk/TBST and incubated with membranes for 1 hr at room temperature. […] Membranes were washed 5× with TBST and HRP secondary antibodies were detected using Enhanced Chemiluminescent™ solution and collected on X-ray film.

**Q.** With `N[C@@H](C[Se][Se]C[C@H](N)C(=O)O)C(=O)O` (racemic) [racemic selenocystine, selenocystine] as the molecule, how does the “Efficiency of reduction by TR” value [1] read?
**A.** equal efficiencies

**Q.** How did the “Efficiency of reduction by TR” value [1] turn out when `N[C@@H](C[Se][Se]C[C@H](N)C(=O)O)C(=O)O` [L-selenocystine] was run?
**A.** equal efficiencies

**Q.** Which “Inhibition of TR activity in cells over expressing TR1 and TR2” value ([1]; C10 cells transfected with TR1 and TR2, TE buffer lysates, SC-TR assay, FIG. 2D) does the source give for `C=CC=O` [acrolein] here?
**A.** inhibited to an equal extent

**Q.** What about the “Inhibition of TR activity (NADPH turnover, A340)” value ([1]; SC-TR assay) of the same molecule?
**A.** complete inhibition

**Q.** And the “Inhibition of TR activity (NADPH turnover, A340)” value ([1]; SC-TR assay, listed as Acrolein)?
**A.** completely inhibits

**Q.** And the “Inhibition of TR activity in cells over expressing TR1 and TR2” value ([2]; C10 cells transfected with TR1 and TR2, TE buffer lysates, end-point assay, FIG. 2C)?
**A.** inhibited to an equal extent

**Q.** What about the “Inhibition of TR activity” value [2] of the same molecule?
**A.** inhibition of total TR activity

**Q.** What about the “Inhibition of TR activity” value ([2]; listed as Acrolein) of the same molecule?
**A.** completely inhibits

**Q.** With `CC(=O)OC[C@H]1O[C@@H]([S-])[C@H](OC(C)=O)[C@@H](OC(C)=O)[C@@H]1OC(C)=O.CCP(CC)CC.[Au+]` [auranofin] as the molecule, how does the “Sensitivity of TR activity to inhibitor, TE buffer versus NP-40 buffer” value ([1]; lysates from treated C10 cells prepared in TE buffer or NP-40 lysis buffer, FIG. 4) read?
**A.** equivalent

**Q.** With `N[C@@H](C[Se][Se]C[C@H](N)C(=O)O)C(=O)O` [selenocystine] as the molecule, how does the “Reduction of substrate by glutathione reductase” value (glutathione reductase) read?
**A.** does not reduce

**Q.** How did the “TR activity after knockdown of TR1” value ([1]; C10 cells transfected with siRNA, SC-TR assay, FIG. 3A) turn out when “siRNA: Specific siRNA to TR1 (si-TR1, 5′-CCAUAGAGGGCGAAUUUAAUU-3′) (listed as RNA, chemistry not given here)” was run?
**A.** reduced TR activity below control levels

**Q.** And the “TR1 protein expression after knockdown” value (TR1)?
**A.** reduced the expression of TR1 for up to 48 hrs
